The subject of one assay is MOLT-4 cells. Put plainly: MTT cytotoxicity assay, MOLT-4. The assay is classed as cell-based. To be noted: Homo sapiens, 48 h, mean ± SD. On the procedure: Human umbilical vein endothelial cells (purchased from Life Technologies, Carlsbad, CA, USA) were cultured according to the manufacturer’s instructions in Medium 200 supplemented with Low Serum Growth Supplement. 1 × 10^4 cells were seeded on each well on a 96-well plate (Nunc, Roskilde, Denmark). The HeLa (human cervix carcinoma, cat. #93021013), CFPAC (human pancreatic adenocarcinoma, cat. #91112501), K562 (chronic myelogenous leukemia, cat. #89121407), HL-60 (acute myelogenous leukemia, cat. #98070106), and MOLT-4 (Human acute T lymphoblastic leukemia, cat. #85011413) cells were purchased from European Collection of Authenticated Cell Cultures (ECACC). They were cultured in an RPMI 1640 medium supplemented with antibiotics (streptomycin, penicillin) and 10% fetal calf serum (20% for HL60), in a 5% CO2-95% air atmosphere. 7 × 10^3 cells were seeded on each well on a 96-well plate (Nunc). 24 hours later the cells were exposed to the test compounds. The aliquots of stock solutions of the test compounds (freshly prepared in DMSO) were added to the cell cultures to yield final concentrations of 1, 10^−1, 10^−2, 10^−3, 10^−4, and 10^−5 mM. The concentration of DMSO in the cell culture medium was 1%. The IC50 value (the concentration of a test compound required to reduce the cell survival fraction to 50% of the control) was calculated from a dose-response curve and used as a measure of cellular sensitivity to a given treatment. The IC50 values are given as means (± standard deviation (SD)) from 2 independent experiments with 4 technical replicates. The cytotoxicity of all compounds was determined by the MTT (3-(4,5-dimethylthiazol-2-yl)-2,5-diphenyltetrazolium bromide) assay (Sigma, St. Louis, MO, USA). Briefly, after 24 h or 48 h of incubation with a given compound, the cells were treated with the MTT reagent and incubation was continued for 2 h. MTT-formazan crystals were dissolved in 20% SDS and 50% DMF at pH 4.7 and VIS light absorption was measured at 570 and 650 nm on a microplate reader FLUOstar Omega (BMG Labtech, Offenburg, Germany). As a control (100% viability), cells grown in the presence of 1% DMSO were used.

The next assay has as its system IKZF1 and IKZF3. As to the kind of experiment: IKZF1 and IKZF3 level by immunoblotting in K562 cells. The assay is classed as cell-based, human. Particulars: K562, 48 h, 3 (1 µM), 5 (1 µM), 6 (1 µM). On the procedure: K562 or MOLT4 cells were seeded on 6-well plate (2 × 10^6 cells/well) in a RPMI 1640 medium containing 10% FBS. MOLT4 cells were exposed to 1% DMSO (vehicle control), test compounds 6 (2 µM), 3 (5 µM), 5 (10 µM). Similarly, K562 cells were exposed to 1% DMSO, test compounds 6 (1 µM), 3 (1 µM), 5 (1 µM) for 48 h. Cells treated with 100 µM thalidomide or 10 µM lenalidomide served as positive controls. After incubation, cells were centrifuged (600 rpm, 6 min, 24 °C), washed once with PBS and lysed in 20 mM Tris (pH 7.2) containing 1% Triton X-100 supplemented with Complete® protease inhibitors cocktail (Roche). The levels of IKZF1 and IKZF3 were assessed by immunoblotting (IB).
Cells were lysed in TBS buffer containing 1% Triton X-100 and Complete® protease inhibitor cocktail (Roche) for 15 min on ice with occasional vortexing. Insoluble material was centrifuged (12,000 rpm, 15 min, 4 °C) and supernatants were collected. Total protein concentration was measured with DC Protein Assay (Bio-Rad, Hercules, CA, USA). Cell lysates containing 30 µg of total protein were mixed with Laemli buffer supplemented with SDS and β-mercaptoethanol, denatured (10 min, 95 °C) and subjected to sodium dodecyl sulfate polyacrylamide gel electrophoresis (SDS-PAGE) electrophoresis (4% stacking and 10% resolving gels). Resolved proteins were electrotransferred (semi-dry, 90 min, 1.5 mA/cm^2) to a 0.45 µm nitrocellulose membrane (Thermo Scientific, Waltham, MA, USA). Membranes were blocked for 2 hours in TBST buffer (20 mM Tris-HCl pH 7.5, 0.9% NaCl, 0.1% Tween 20) containing 5% BSA (BioShop, Burlington, ON, Canada) and probed with primary antibodies (overnight at 4 °C) diluted in TBST buffer with 0.5% BSA. Tubulin served as a loading control for IB experiments. Anti IKZF3 (rabbit monoclonal, dilution 1:500), anti IKZF1 (rabbit polyclonal, dilution 1:500) were from Abcam. Anti IRF4 (rabbit polyclonal, dilution 1:500) were from Cell Signaling Technology. […] Protein bands intensities were analysed using Image Quant (version 5.0, GE Healthcare Life Sciences, Pittsburgh, PA, USA).
For orientation: A western blot detects proteins with antibodies after separation by electrophoresis.

Broadly, the IC50 is the concentration that inhibits the measured activity by half. With `CCC12C(=O)C(CC)(C(c3ccccc3)=C1c1ccccc1)C1C(=O)N(CCN3CCCCC3)C(=O)C12` (stereo not drawn) [Compound 3], in the assay on MOLT-4 cells, the IC50 stood at 9 ± 0.6 µM. For the same compound, the “level of IKZF1 and IKZF3 (immunoblotting)” value (from here on “level of IKZF1 and IKZF3”) with IKZF1 and IKZF3 was “modest reduction”.

In the assay on MOLT-4 cells, `CCC12C(=O)C(CC)(C(c3ccccc3)=C1c1ccccc1)C1C(=O)N(CC(O)CNC(C)C)C(=O)C12` (stereo not drawn) [Compound 5] showed an IC50 of 20 ± 2.3 µM. Besides, the “level of IKZF1 and IKZF3” value with IKZF1 and IKZF3 was “significant diminution”.

Regarding `CN(C)CCN1C(=O)C2C(C1=O)C1(c3ccccc3)CC2(c2ccccc2)C(c2ccccc2)=C1c1ccccc1` (stereo not drawn) [Compound 6], in the assay with MOLT-4 cells, the IC50 turned out to be 4 ± 0.2 µM. Besides, in the assay on IKZF1 and IKZF3, the “level of IKZF1 and IKZF3” value is “significant diminution”.
